PubChem BioAssay AID602444 (National Center for Advancing Translational Sciences (NCATS), 2012)

System: mouse liver microsomes without NADPH, percent remaining
Experiment: High Content Assay for Compounds that inhibit the Assembly of the Perinucleolar Compartment: Mouse Liver Microsome Stability without NADPH
Conditions: hits give low values
From the text: The perinucleolar compartment (PNC) is a non-membrane-bound nuclear subdomain that is associated with but structurally distinct from the nucleolus. The PNC is a heritable trait, in which the number of PNCs per cell in daughter cells often mimics that of their mother cells. The PNC is heterogeneous in shape, is stable through interphase, disassembles during mitosis, and reassembles in early G1. The PNC is concentrated with newly synthesized RNA polymerase III (pol III) RNAs (MRP RNA, RNAse P H1 RNA, hY RNAs[hY1, 2, 5], Alu RNA, and SRP [7SL] RNA) and RNA binding proteins (nucleolin, PTB, CUG-BP, KSRP, Raver1, Raver2, and Rod).
Extensive in vitro studies have shown that the PNC is unique to tumor cells and preferentially forms in tumor cells derived from solid tissues. Examination of cancer cell lines from various origins and malignant capacities has shown that PNC prevalence correlates with the malignancy of tumors and has the potential to be developed as a pan-cancer prognostic marker.
Mouse liver microsomes are generated from lysed mouse liver. Liver microsomes contain many drug metabolizing enzymes, including Cytochome P-450s and flavin-containing monooxygenases. Because drug metabolism is major way of drug clearance, this is an important result. […]
1uM of compound in incubated in mouse liver microsome; the reference compound is ketanserin. […] Samples are analyzed with LC-MS/MS.

N=c1c2c(-c3ccccc3)c(-c3ccccc3)n(Cc3ccccc3)c2ncn1C1CCC(O)CC1 (stereo unspecified)
percent remaining: 106%
